Test results published in publication PMC3791872 (Bioscience Reports, 2013).

Assays:
[1] = target: T1, SV40 large TAg (Simian virus 40, UniProt P03070); experiment: ssDNA double filter-binding assay, TAg; set-up: species or system SV40 (simian virus 40); details: 1 mM compound, 150 nM helicase
T1 construct: made in house

[2] = target: T2, T4 gp41 (Enterobacteria phage T4, UniProt P04530); experiment: T4 gp41 helicase assay; assay type: biochemical; details: 1 mM, Figure S3
T2 sequence (P04530 1-475): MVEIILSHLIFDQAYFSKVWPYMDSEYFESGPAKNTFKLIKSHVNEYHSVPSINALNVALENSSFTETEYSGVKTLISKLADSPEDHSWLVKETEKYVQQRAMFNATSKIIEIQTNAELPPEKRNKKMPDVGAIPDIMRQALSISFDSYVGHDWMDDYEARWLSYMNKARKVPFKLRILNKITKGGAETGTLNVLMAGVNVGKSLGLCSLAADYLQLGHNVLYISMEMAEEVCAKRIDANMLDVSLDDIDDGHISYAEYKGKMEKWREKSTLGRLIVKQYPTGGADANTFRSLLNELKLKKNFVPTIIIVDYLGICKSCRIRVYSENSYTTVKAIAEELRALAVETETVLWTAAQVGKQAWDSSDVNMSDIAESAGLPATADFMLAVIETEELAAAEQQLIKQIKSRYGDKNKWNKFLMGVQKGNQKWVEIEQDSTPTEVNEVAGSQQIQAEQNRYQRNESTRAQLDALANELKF
Method: Helicase assays were performed essentially as described. Synthetic replication forks were prepared by annealing oligos 233 and 235 [IDT (Coralville), oligo 233 5′(T)40[…]; oligo 235 5′ […](T)40] and then filling in the recessed 3′-end with [α32P]dATP and unlabelled dNTPs using Klenow Fragment. Briefly, reactions ([…]) were performed in 1× helicase assay buffer [20 mM Tris/HCl (pH 7.5), 10 mM MgOAc, 20% (v/v) glycerol, 100 μM EDTA and 5 mM DTT (dithiothreitol)] and contained a final concentration of 1 nM fork substrate, 5 mM ATP, 40 mM creatine phosphate, […] creatine kinase, 33 μg/ml BSA. Reactions containing Mcm2-7 and Mcm467 were supplemented with 200 mM potassium glutamate. Reactions containing SsoMcm were incubated at 65°C, those containing T4 gp41 were incubated for 30 min at 37°C, and all other reactions were incubated at 37°C for 1 h. The products were separated by 10% (w/v) native PAGE, the resulting gels dried and the radioactivity quantified using a Fuji FLA-5100 phosphoimager. Irrespective of the protein used, all helicase assays contained equal molar helicase concentrations (100 nM, assuming in all cases that the active helicase form is hexameric). Steady-state ATP hydrolysis was assayed as published. In short, reactions were set up essentially as in the helicase assay, with minor exceptions. A non-radiolabelled DNA fork was used, helicase concentration was 100 nM (hexamer) the total ATP concentration was 500 μM and included ~0.5 μCi of [α32P]ATP, and the ATP regeneration system was omitted. Reactions were incubated for 1 h at 37°C and stopped by the addition of SDS. ATP was separated from ADP by PEI (polyethyleneimine) thin layer chromatography, and the ratio of ATP:ADP was quantified using a Fuji FLA-5100 phosphoimager. Based on our prior work, conditions were established to ensure that the results shown are within the linear range of the assay. Protein–ssDNA binding was determined with a double filter-binding assay using an ssDNA probe (oligo 826, 5′[…]) that was 5′-radiolabelled using T4 polynucleotide kinase and [γ32P]ATP [16]. For the double filter-binding assay, the helicase concentration was 150 nM (hexamer) and the ssDNA concentration was 4 nM. For all biochemical assays, helicases were preincubated with inhibitors for 20 min at 37°C unless otherwise indicated. […]
against different helicases
Representative helicase activity assays in the presence of the indicated inhibitor were tested, quantiﬁed and standardized as described in the legend to F igures 2 (A) and (B). All helicases were assayed at 100 nM
ﬁnal concentration (hexamer) with inhibitor preincubation prior to ATP […]
F igure S3 Ciproﬂoxacin poor ly inhibits hexameric helicases un- […]
All inhibitors were used at 1 mM ﬁnal concentration. […]

[3] = target: T1, SV40 large TAg; experiment: Steady-state ATP hydrolysis by TAg; assay type: biochemical, SV40 (simian virus 40); details: 1 mM compound, 100 nM hexamer
[4] = target: T3, Mcm467 (Saccharomyces cerevisiae, UniProt P30665+P38132+P53091); experiment: Mcm467 helicase (DNA unwinding) assay; assay type: biochemical; details: DNA unwinding, 100 nM hexamer, inhibitor preincubation; […]; read-out: IC50 Mcm467
T3 construct: made in house; host or cells: baculovirus-infected insect cells
T3 sequence (P30665 whole entry): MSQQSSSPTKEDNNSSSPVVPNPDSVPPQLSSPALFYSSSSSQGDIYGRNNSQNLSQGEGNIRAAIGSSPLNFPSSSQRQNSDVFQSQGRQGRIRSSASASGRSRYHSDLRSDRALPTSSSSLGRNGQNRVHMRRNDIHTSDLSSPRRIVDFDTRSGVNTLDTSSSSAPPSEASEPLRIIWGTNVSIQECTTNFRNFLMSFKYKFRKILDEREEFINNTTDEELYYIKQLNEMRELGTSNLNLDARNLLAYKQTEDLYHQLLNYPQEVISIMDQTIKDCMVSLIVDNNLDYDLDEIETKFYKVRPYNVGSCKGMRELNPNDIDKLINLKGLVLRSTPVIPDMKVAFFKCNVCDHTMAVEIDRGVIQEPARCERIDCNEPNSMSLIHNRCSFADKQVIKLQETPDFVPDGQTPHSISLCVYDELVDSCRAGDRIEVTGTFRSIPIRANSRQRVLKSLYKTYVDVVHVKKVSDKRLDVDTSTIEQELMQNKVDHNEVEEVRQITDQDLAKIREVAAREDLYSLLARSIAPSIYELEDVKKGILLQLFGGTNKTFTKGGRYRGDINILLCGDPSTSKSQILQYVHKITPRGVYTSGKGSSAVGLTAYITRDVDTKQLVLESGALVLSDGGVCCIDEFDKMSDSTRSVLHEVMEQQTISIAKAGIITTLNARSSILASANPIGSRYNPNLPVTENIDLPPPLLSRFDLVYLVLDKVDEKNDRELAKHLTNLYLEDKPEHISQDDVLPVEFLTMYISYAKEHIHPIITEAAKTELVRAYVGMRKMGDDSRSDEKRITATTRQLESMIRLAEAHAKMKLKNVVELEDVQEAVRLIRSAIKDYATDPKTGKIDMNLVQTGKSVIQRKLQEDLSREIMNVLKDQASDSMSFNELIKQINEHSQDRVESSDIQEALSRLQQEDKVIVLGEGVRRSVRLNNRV
T3 sequence (P53091 whole entry): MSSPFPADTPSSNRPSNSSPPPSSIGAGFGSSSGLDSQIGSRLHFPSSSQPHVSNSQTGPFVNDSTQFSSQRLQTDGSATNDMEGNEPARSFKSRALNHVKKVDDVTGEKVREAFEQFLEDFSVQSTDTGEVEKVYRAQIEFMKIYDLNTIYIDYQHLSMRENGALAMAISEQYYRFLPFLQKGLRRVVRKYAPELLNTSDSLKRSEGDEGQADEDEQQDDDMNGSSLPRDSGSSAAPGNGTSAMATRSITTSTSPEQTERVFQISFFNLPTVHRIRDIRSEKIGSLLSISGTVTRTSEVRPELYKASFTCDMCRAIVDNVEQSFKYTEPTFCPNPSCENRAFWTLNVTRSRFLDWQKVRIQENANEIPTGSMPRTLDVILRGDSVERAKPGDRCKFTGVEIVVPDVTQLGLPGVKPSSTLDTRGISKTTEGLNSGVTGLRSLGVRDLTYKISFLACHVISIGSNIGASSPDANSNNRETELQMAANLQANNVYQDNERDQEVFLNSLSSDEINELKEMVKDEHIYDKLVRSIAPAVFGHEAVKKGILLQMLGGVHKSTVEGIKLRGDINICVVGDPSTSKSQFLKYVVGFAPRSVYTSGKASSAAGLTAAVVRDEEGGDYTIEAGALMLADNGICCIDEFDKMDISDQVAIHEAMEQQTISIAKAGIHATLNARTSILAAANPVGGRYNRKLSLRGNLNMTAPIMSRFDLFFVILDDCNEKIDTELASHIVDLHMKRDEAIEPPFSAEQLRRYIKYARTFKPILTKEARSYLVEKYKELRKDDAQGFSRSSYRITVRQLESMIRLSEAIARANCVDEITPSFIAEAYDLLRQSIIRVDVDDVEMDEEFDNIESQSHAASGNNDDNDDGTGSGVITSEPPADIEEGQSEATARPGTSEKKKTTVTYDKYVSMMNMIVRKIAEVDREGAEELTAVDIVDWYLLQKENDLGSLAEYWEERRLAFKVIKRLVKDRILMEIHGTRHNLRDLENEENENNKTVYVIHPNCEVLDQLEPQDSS
T3 sequence (P38132 whole entry): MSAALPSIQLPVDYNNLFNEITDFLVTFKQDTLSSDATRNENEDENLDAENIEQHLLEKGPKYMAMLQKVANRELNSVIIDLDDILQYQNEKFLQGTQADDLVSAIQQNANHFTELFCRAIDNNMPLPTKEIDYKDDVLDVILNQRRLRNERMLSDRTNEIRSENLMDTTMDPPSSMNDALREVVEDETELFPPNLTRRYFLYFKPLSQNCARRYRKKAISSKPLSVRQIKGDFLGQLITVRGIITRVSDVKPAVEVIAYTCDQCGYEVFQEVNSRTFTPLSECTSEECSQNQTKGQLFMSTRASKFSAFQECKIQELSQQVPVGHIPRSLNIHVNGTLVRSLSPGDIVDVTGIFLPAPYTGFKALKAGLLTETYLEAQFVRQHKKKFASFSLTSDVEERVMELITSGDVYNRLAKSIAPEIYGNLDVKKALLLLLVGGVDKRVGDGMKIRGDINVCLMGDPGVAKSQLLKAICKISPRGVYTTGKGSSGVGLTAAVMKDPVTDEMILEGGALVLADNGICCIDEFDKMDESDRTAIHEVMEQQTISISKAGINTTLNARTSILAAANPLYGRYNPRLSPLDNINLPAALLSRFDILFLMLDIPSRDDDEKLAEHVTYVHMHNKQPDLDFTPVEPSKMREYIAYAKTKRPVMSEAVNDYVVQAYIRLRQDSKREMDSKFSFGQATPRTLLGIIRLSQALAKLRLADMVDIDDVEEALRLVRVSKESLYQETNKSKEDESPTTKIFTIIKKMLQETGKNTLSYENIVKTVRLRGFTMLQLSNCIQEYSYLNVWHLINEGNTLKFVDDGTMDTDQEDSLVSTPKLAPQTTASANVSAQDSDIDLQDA

[5] = tested on: T4, Mcm2-7; experiment: ssDNA double filter-binding assay, Mcm2-7; set-up: species or system Saccharomyces cerevisiae; details: 1 mM compound, 150 nM helicase
T4 construct: made in house; host or cells: baculovirus-infected insect cells

T1 sequence (P03070 whole entry): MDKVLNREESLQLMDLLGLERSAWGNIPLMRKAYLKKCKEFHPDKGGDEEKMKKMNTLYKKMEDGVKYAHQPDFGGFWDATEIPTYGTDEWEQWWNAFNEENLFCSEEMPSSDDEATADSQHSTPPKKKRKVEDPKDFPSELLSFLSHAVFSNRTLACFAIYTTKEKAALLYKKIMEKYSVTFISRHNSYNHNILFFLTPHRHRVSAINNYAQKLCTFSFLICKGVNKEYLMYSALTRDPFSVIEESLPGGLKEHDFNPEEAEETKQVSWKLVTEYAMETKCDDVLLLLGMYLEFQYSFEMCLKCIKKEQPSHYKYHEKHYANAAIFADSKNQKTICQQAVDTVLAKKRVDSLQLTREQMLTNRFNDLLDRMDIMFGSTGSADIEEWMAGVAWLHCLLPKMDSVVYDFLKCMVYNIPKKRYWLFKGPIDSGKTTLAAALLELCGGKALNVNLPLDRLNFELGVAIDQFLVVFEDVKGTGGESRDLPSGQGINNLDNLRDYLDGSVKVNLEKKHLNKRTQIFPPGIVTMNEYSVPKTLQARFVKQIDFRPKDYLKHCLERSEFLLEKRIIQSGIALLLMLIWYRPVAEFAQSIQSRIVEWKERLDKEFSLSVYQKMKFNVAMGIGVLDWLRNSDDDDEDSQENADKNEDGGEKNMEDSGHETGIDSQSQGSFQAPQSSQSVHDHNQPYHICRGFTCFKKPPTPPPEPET

O=C(O)c1cn(C2CC2)c2cc(N3CCNCC3)c(F)cc2c1=O [Ciprofloxacin, ciprofloxacin, reference compound]
effect on ssDNA binding of TAg [1]: only modest effects
inhibition of T4 gp41 helicase [2]: none of the tested helicases were substantially inhibited
effect on ATP hydrolysis of TAg [3]: only modest effects
IC50 [4]: 1890 µM
effect on ssDNA binding of Mcm2-7 [5]: only modest effects
